According to article PMC7385626 (Scientific Reports, 2020):
Values joined by “and” are separate entries in the source; they are usually repeats but may differ in a detail not shown here. Equal values may be shown once.

Legend:
[1] = target: BSA (Bos taurus, UniProt P02769); assay: UV–Visible absorption titration, BSA binding constant; parameters: species or system Bovine
Text: UV–Visible absorption spectroscopy technique was also used to study interactions between BSA and 1–4. […] The some results of [BSA]/(εa − εf) = [BSA]/(εb − εf) + 1/[Kb(εb − εf)] in Fig. 9, used and also obtained. The binding constants for the 1–4 were found as 2.4 ± 0.22 × 10^4 M^−1, 4.3 ± 0.29 × 10^4 M^−1, 3.4 ± 0.23 × 10^4 M^−1 and 4.8 ± 0.29 × 10^4 M^−1, respectively. In Fig. 9, the increase in BSA concentrations leads to a change in the absorption of the complexes resulting in hypochromism for 1 and 3 and hyperchromism for 2 and 4.
To obtain the interaction act of the molecules with calf thymus DNA and also to determine the binding constants (Kb) UV–Visible absorption spectroscopy method was utilized. Indeed, 2.5 mg calf thymus DNA in this part was dissolved in Tris–HCl buffer and stabile pending seven days in the refrigerator. The concentration level of calf thymus DNA was calculated spectrophotometrically assay at 260 nm. This method was done according to previous studies.

[2] = test system: C6; assay: BrdU Cell Proliferation Assay (BCPA); assay type: cell-based
Text: (§1) The antiproliferative activities of Ag(I) molecules and the starting molecules of the parent molecules, N-bishydeten and [Ag(CN)2]^− compound, on cells, were monitored utilizing by the BrdU Cell Proliferation Assay (BCPA) (Fig. 6).
(§2) The antiproliferative activity of the 2, 3, 4, [Ag(CN)2]^− and 5FU against various cell lines (HeLa ATCC CCL-2, C6 cells ATCC CCL-107, HT29 ATCC HTB-38, and Vero ATCC CCL-81) were preserved and maintained in Dulbecco’s modified eagle’s medium, supplemented with %2 antibiotic (Streptomycin-Penicillin) solution and 10% fetal bovine serum.
(§3) The cell suspension including 5×10^3 cells in 100 µL was supplied into the well cell plates (96-well cell). The therapies of these cells with 2, 3, 4 and [Ag(CN)2]^− in DMSO (max 0.1% DMSO) and 5-Florouracil (5 FU) molecule in DMSO (max 0.1% DMSO) separately at concentration 0.25, 0.50, 1.00, 1.50, 2.00, 2.50, 3.75, and 5.00 µg/mL were carried out. The last volume was adapted to 200 µL by mixture and DMEM and also incubated for 24 h at 37°C with 5% CO2. The antiproliferative activities of the 2, 3, 4 and [Ag(CN)2]^− were determined with using BrdU Cell proliferation ELISA Kit conforming to manufacturer’s assay.
(§4) IC50 values the concentration of a factor which required for other method of in vitro.

[3] = test system: HeLa; assay: BrdU Cell Proliferation Assay (BCPA); assay type: cell-based
Text: as §1, §2, §3, §4

[4] = test system: Vero; assay: BrdU Cell Proliferation Assay (BCPA); assay type: cell-based
Text: as §1, §2, §3, §4

[5] = test system: HT29; assay: BrdU Cell Proliferation Assay (BCPA); assay type: cell-based, human
Text: as §1, §2, §3, §4

[6] = test system: KpnI and BamHI; assay: Inhibition of restriction endonucleases activity (pTOLT plasmid digestion); assay type: biochemical
Description: Fig. S12. […] Following 4 h 37°C digestion of the 14µL with 10U KpnI and BamHI, these digestion products were resolved with 1.5% agarose gel containing ethidium bromide. Lane 1: enzyme + DNA + complex 4, Lane 2: enzyme + DNA + complex 3, Lane 3: enzyme + DNA + complex 2, Lane 4: Positive control (enzyme + DNA), Lane 5: Negative control (plasmid DNA + water); lane 6: DNA marker (1Kb).

[7] = test system: C6, HeLa, and HT29 cells; assay: DNA laddering (internucleosomal DNA fragmentation); assay type: cell-based
Description: Here, appearances of apoptotic morphology and DNA fragmentation may be a result of the activation of the extrinsic apoptotic pathways, including Ca^2+ dependent endonucleases. Apoptosis assay is determined by controlling cell death which included cleavage of DNA molecule into regular fragments. In this part, we observed that our molecules could act through containing apoptosis on some cells. More studies were conducted to obtain the antiproliferative and apoptotic potentials of Ag molecules which are consistent with this work[70],[75],[75],[79],[80].
By growing C6, HeLa, and HT29 cells were incubated with the molecules at 37 °C for overnight, DNA molecule was isolated in this part, and DNA fragmentation was visualized by agarose gel electrophoresis. […] A-HT29: 1, DNA standard; 2, HT29 Control; 3, HT29 + 2; 4, HT29 + 3; 5, HT29 + 4. B-C6: 1, DNA standard; 2, C6 + 2; 3, C6 + 3; 4, C6 + 4; 5, C6 Control. C-HeLa: 1, DNA standard; 2, HeLa + 2; 3, HeLa + 3; 4, HeLa + 4; 5, HeLa Control.
. Treated cell was harvested using a plastic scraper, and these fixed with 70 % ethanol, and also incubated for 48 hours. The ethanol amount was removed by centrifugation and air drying. The cell pellet was resuspended in 55 μL phosphate-citrate buffer (consisting of 192 parts of 0.2 M Na2HPO4 and 8 parts of 0.1 M citric acid, pH 7.8), and incubated at 37°C for 30 min in a shaker incubator. A 45 μL of supernatant was transferred to a microsantrifuge tube, mixed with 5 μL 0.25% Tween20 solution and 5 μL RNase A enzyme solution and also incubated for 30 min in a shaker incubator. […]

[8] = test system: B. subtilis ATCC6633; assay: Disc diffusion assay; assay type: cell-based, Bacillus Subtilis
Description: (§5) Therefore, the pathogen bacterial flora and the opportunistic agents may be taken into consideration both in the management of cancer patients and in individual susceptibility to cancer. Indeed, dual acting factors with antimicrobial and antiproliferative potentials can result in improved therapeutic efficacy for cancer cell patients or reduced cancer predisposition. […]. In this study, 10 microbial cultures of this part, belonging to ten types of bacterial were used. The culture was grown in Mueller–Hinton Broth (Merck) for all the bacterial strains at 36 °C. Antimicrobial test was carried out by using disc-diffusion assay utilizing 100 µL of suspension with 10^8 CFU/mL of bacteria and 10^6 CFU/mL of yeast spread on Nutrient Agar and Potato Dextrose Agar, respectively. Also, the blank disc (Oxoid = 6 mm in diameter) was impregnated with 20 µL of each substance (105 µg/disc) and placed on the inoculated agar. Negative controls ([…]) were prepared using the same solvent (water) employed to dissolve each substance. […]. The inoculated plate was incubated at 36 °C for clinical bacterial strains. Antimicrobial activities were evaluated by obtaining the zone of inhibitory effect against the test organisms.

[9] = test system: B. cereus DSM 4312; assay: Disc diffusion assay; assay type: cell-based, Bacillus Cereus
Description: as §5

[10] = test system: E. coli 111; assay: Disc diffusion assay; assay type: cell-based, Escherichia coli
Description: as §5

[11] = test system: E. aerogenes 2924; assay: Disc diffusion assay; assay type: cell-based, Enterobacter Aerogenes
Description: as §5

[12] = test system: S. gallinarum; assay: Disc diffusion assay; assay type: cell-based, Salmonella Gallinarum
Description: as §5

Row | Substance | binding constant with BSA [1] | IC50 [2] | IC50 [3] | IC50 [4] | IC50 [5] | effect on restriction endonucleases activity (KpnI and BamHI digestion of pTOLT plasmid DNA) [6] | DNA fragmentation (DNA laddering) [7] | inhibition zones, B. subtilis ATCC6633 [8] | inhibition zones, B. cereus DSM 4312 [9] | inhibition zones, E. coli 111 [10] | inhibition zones, E. aerogenes 2924 [11] | inhibition zones, S. gallinarum [12]
1 | [Cd(N-bishydeten)]4[Ag(CN)2]8[Ag(CN)]2 [Complex 4] | 4.8 ± 0.29 × 10^4 M^−1 and 4.8 x 10^4 | 600 ± 90 nM | 610 ± 90 nM | 630 ± 90 nM | 480 ± 80 nM | failed to inhibit the restriction endonucleases activity | induced the organization of DNA fragmentation | 34 ± 0.58 mm | 36 ± 1.0 mm | 29 ± 0.58 mm | 25 ± 1.0 mm | 37 ± 1.0 mm
2 | [Cu(N-bishydeten)Ag3(CN)5] [Complex 2] | 4.3 ± 0.29 × 10^4 M^−1 and 4.3 x 10^4 | 950 ± 90 nM | 3640 ± 420 nM | 2810 ± 320 nM | 870 ± 90 nM | caused the formation of two DNA bands (Lane 3) corresponding to the supercoiled and nicked DNA | induced the organization of DNA fragmentation | 27 ± 0.58 mm | 30 ± 0.58 mm | 32 ± 0.0 mm | 22 ± 1.0 mm | 35 ± 1.0 mm
3 | [Zn(N-bishydeten)Ag3(CN)5] [Complex 3] | 3.4 ± 0.23 × 10^4 M^−1 and 3.4 x 10^4 | 3340 ± 340 nM | 3190 ± 370 nM | 3060 ± 350 nM | 2370 ± 320 nM | failed to inhibit the restriction endonucleases activity | induced the organization of DNA fragmentation | 31 ± 1.0 mm | 34 ± 0.0 mm | 30 ± 0.58 mm | 20 ± 1.0 mm | 35 ± 0.58 mm
